Data published in publication PMC10122656, “Siglec-6 mediates the uptake of extracellular vesicles through a noncanonical glycolipid binding pocket” (Nature Communications, 2023).
Numbering of substitutions follows the chain as printed. Several values for one entry are separate records, joined by “and”; a condition that tells them apart may be missing. Identical values can stand only once.

Key:
Assay in all cases: Cell assay (liposome/EV binding, flow cytometry)
Type in all cases: cell-based
Siglec-4 R118A CHO cells = target: T1, Siglec-4 R118A CHO cells (Homo sapiens, UniProt P20916, R118A); conditions: Sig-4 R118A†; † after treatment of cells with neuraminidase; 3 mol% ganglioside liposomes; replicates
T1 construct: expressed in transfected cells
T1 sequence (P20916 20-626 R118A): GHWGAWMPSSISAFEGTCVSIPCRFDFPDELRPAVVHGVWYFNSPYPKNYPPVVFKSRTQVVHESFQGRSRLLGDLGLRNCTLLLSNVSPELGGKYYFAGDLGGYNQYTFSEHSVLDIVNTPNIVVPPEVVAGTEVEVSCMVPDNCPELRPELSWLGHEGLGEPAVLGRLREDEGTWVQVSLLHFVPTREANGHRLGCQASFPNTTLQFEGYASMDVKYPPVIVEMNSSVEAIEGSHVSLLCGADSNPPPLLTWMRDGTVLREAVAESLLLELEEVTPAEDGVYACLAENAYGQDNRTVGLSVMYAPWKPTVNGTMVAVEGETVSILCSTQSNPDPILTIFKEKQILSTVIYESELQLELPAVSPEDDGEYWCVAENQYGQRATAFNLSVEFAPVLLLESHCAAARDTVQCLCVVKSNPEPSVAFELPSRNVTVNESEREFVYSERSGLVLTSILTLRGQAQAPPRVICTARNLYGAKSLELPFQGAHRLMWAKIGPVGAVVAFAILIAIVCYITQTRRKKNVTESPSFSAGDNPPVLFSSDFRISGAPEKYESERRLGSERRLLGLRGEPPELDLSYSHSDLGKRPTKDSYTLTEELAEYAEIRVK

Siglec-4 WT CHO cells = target: T2, Siglec-4 WT CHO cells (Homo sapiens, UniProt P20916); conditions: Sig-4 WT†; † after treatment of cells with neuraminidase; 3 mol% ganglioside liposomes; replicates
T2 construct: expressed in transfected cells
T2 sequence (P20916 20-626): T1 sequence (P20916 20-626 R118A) with A99R

Siglec-7 WT CHO cells = target: T3, Siglec-7 WT CHO cells (Homo sapiens, UniProt Q9Y286); conditions: for log10(MFI AF647) of GLL relative to log10(MFI AF647) of the same GLL against UT CHO cells (Fig. 2a): Sig-7 WT†, † after treatment of cells with neuraminidase, 3 mol% ganglioside liposomes, replicates
T3 construct: expressed in transfected cells
T3 sequence (Q9Y286 19-467): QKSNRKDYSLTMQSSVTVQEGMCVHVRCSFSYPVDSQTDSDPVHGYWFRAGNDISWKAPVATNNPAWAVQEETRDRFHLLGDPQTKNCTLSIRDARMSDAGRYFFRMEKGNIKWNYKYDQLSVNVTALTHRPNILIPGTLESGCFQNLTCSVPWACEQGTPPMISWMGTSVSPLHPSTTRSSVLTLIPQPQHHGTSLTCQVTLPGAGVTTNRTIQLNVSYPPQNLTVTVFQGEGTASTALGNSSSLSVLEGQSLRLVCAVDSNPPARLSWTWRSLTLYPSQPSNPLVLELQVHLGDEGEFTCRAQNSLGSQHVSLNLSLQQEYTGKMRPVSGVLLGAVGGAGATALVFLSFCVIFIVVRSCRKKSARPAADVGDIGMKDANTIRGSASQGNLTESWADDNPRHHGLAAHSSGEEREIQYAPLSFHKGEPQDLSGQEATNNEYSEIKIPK

Substance | log10(MFI AF647) of GLL relative to log10(MFI AF647) of the same GLL against UT CHO cells (Fig. 2a) (Siglec-4 R118A CHO cells) | log10(MFI AF647) of GLL relative to log10(MFI AF647) of the same GLL against UT CHO cells (Fig. 2a) (Siglec-4 WT CHO cells) | log10(MFI AF647) of GLL relative to log10(MFI AF647) of the same GLL against UT CHO cells (Fig. 2a) (Siglec-7 WT CHO cells) | GLL binding to Siglec-7 with increasing ganglioside content (in words) (Siglec-7 WT CHO cells; ganglioside titrated in GLLs, cells treated with neuraminidase S)
GD1a | 0 (2×) and 0.02 and 0.01 | 1.02 and 0.9 and 0.95 and 0.88 | 0.05 and 0.02 and 0.03 | 
GD1b | 0.08 and 0.05 and 0.02 and 0.03 | 0.9 and 0.93 and 0.96 and 0.92 | 0 and -0.03 and -0.01 | 
GD3 | -0.13 and -0.1 and -0.07 and -0.14 | 0.51 (2×) and 0.52 and 0.5 | 1.01 and 0.98 and 1.03 | decreased above an optimal ganglioside content
GM1 | -0.3 and -0.31 (2×) and -0.32 | 0.57 (2×) and 0.53 and 0.49 | -0.1 and -0.11 and -0.08 | 
GM2 | 0 and -0.04 and -0.02 and -0.03 | 0.08 (2×) and -0.03 and -0.04 | -0.02 and 0 (2×) | 
GM3 | -0.24 and -0.19 (2×) and -0.2 | -0.11 (2×) and -0.14 and -0.2 | -0.16 and -0.14 and -0.13 | 
GM4 | -0.12 (2×) and -0.1 and -0.07 | -0.3 and -0.1 and -0.11 and -0.09 | -0.07 and -0.06 and -0.04 | 
GQ1b | -0.12 and -0.13 (2×) and -0.1 | 0.13 and 0.12 and 0.1 and 0.11 | 1.41 and 1.39 and 1.38 | 
GT1b | 0.12 and 0.1 and 0.13 and 0.14 | 1.15 and 1 and 1.11 and 1.1 | 0.54 and 0.42 and 0.56 | 
